# Data from publication PMC10064330, “Reversible Dual-Covalent Molecular Locking of the 14-3-3/ERRγ Protein–Protein Interaction as a Molecular Glue Drug Discovery Approach” (Journal of the American Chemical Society, 2023).
# Target: T1, 14-3-3γ/PIN1 complex (Homo sapiens, UniProt P61981)
# T1 construct: made in house; host or cells: E. coli NiCo21 (DE3)
# T1 sequence (P61981 1-247): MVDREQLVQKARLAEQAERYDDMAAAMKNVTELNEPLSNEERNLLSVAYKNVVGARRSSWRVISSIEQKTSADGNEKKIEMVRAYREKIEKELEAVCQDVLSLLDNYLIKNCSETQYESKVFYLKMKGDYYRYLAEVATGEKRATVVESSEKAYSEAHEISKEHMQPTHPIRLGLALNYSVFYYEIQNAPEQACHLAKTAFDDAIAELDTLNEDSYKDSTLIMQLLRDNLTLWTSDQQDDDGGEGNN
# Test: FA selectivity screen, PIN1 client peptide
# Format: binding
# Conditions: 100 μM compound, PIN1 peptide (+1 Trp)
# Description: Drugging the hub protein 14-3-3 raises the challenge of selectivity, given that 14-3-3 binds several hundred phosphoprotein partners (Figure 4a).[54] We hypothesized that the interplay of chemical reactivity, the topology, and functionality of the composite binding pocket shaped by 14-3-3 and the interaction partner drives selective stabilization of the 14-3-3/ERRγ complex.[53] To validate selectivity, molecular locks 5 and 10 were tested against a panel of nine 14-3-3 client peptides in an FA assay, and the SF100 was determined for each 14-3-3 PPI (Figure 4b and Figures S18–S20). This client panel contained a diverse representation of 14-3-3 binding proteins, differing for example in size and hydrophobicity of the +1 amino acid. Importantly, clients PKR and RND3, each containing a +1 Cys, were included in the panel.
# Figure S20. KD and SF100 plot – selectivity screen. […]
# nine different client peptides in presence of DMSO (negative control) or 100 µM of compound 1, 5 or 10 (based on binding curves in Figure S19). […]
# A pPROEX HTb expression vector encoding the human 14-3-3 protein gamma (14-3-3γ) with a N-terminal his6-tag was transformed by heat shock into NiCo21 (DE3) competent cells. […] Finally, the protein was concentrated to ∼60 mg/mL, analyzed Q-Tof LC/MS, and aliquots were flash-frozen for storage at −80 °C. […]
compound,measurement,value
CN(C)CCSSCCN(C)C(=O)c1ccc(C=O)c(F)c1 [compound 5],off-target effect in client screen,minor off-target effects
